Assay results from patent publication US8710017B2, “Human and mouse targeting peptides identified by phage display” (priority 2000, dated 2014).
Bridge positions count the residues as written; N and C are the ends. Ends that are not written are not given here.

Experiments:
[1] = system: MDA-MB-435-derived tumor xenografts; assay: In vivo tumor homing of APA-binding phage; set-up: species or system mouse; settings: 10^9 TU iv, 5 min circulation, FIG. 22
Procedure: MDA-MB-435-derived tumor xenografts were established in female nude mice 2 months old (Jackson Labs, Bar Harbor, Me.). Mice were anesthetized with Avertin and injected intravenously through the tail vein with 10^9 TU of the phage in a 200 μl volume of DMEM. The phage were allowed to circulate for 5 min, and the animals were perfused through the heart with 5 ml of DMEM. The tumor and brain were dissected from each mouse, weighed, and equal amounts of tissue were homogenized. The tissue homogenates were washed three times with ice-cold DMEM containing a proteinase inhibitor cocktail and 0.1% BSA. Bound phage were rescued and counted as described for cell panning. Fd-tet phage was injected at the same input as a control. The experiment was repeated twice. In parallel, part of the same tissue samples were fixed in Bouin solution, and imbedded in paraffin for preparation of tissue sections. An antibody to M-13 phage (Amersham-Pharmacia) was used for the staining.

APA (SK-RC-49/APA cells) [2] = molecular target: T1, APA (SK-RC-49/APA cells) (Homo sapiens, UniProt Q07075); assay: Cell panning of CX3CX3CX3C phage library on SK-RC-49/APA cells (insert frequency); type: cell-based; settings: share of 18 randomly selected phage inserts, round 2
T1 construct: The renal carcinoma cell line SK-RC-49 was transfected with an expression vector encoding full-length APA cDNA; expressed in transfected cells; host or cells: SK-RC-49 renal carcinoma cells, stably transfected (G418)
T1 sequence (Q07075 whole entry): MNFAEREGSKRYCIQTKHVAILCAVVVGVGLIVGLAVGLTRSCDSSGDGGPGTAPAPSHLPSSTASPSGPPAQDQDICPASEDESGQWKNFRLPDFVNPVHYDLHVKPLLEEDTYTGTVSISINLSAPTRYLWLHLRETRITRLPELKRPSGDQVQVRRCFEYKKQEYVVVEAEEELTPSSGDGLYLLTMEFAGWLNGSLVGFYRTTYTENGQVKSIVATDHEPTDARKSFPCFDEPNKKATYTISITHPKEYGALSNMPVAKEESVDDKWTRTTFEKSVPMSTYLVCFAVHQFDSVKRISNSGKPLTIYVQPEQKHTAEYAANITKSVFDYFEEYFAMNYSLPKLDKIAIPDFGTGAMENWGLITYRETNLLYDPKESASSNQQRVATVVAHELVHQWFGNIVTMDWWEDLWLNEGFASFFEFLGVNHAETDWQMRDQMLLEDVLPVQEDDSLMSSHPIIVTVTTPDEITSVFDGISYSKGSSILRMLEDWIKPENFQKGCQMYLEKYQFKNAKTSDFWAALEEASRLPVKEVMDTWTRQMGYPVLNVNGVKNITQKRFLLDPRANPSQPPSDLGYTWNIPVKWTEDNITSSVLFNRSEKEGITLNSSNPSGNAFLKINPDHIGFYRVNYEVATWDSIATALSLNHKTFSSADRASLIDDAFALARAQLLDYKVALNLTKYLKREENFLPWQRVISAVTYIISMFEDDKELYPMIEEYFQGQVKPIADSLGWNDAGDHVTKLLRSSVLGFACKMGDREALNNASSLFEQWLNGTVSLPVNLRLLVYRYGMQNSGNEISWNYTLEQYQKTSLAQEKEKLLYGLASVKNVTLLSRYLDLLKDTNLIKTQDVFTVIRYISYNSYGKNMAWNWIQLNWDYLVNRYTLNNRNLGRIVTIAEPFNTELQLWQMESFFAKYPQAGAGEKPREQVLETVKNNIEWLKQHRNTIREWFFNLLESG
Procedure: A CX3CX3CX3C(C, cysteine; X, any amino acid) library was prepared (Rajotte et al., 1998). […] Cells were detached by incubation with 2.5 mM EDTA in PBS, washed once in binding medium (DMEM high glucose supplemented with 20 mM HEPES and 2% FCS), and resuspended in the same medium at a concentration of 2×10^6 cells/ml. 10^10 TU of phage were added to 500 μl of the cell suspension, and the mixture was incubated overnight (first round) or for 2 h (successive rounds) at 4° C. with gentle rotation. Cells were washed five times in binding medium at room temperature and resuspended in 100 μl of the same medium. Phage were rescued by adding 1 ml of exponentially growing K91Kan Escherichia coli bacteria and incubating the mixture for 1 h at room temperature. Bacteria were diluted in 10 ml of LB medium supplemented with 0.2 μg/ml tetracycline and incubated for another 20 min at room temperature. Serial dilutions were plated on LB plates containing 40 μg/ml tetracycline, and plates were incubated at 37° C. overnight before colonies were counted.
The CX3CX3CX3C phage library (10^10 transducing units [TU]) was preadsorbed on parental SK-RC-49 cells to decrease nonspecific binding. […] SK-RC-49/APA-bound phage were amplified and used for two consecutive rounds of selection.

APA (SK-RC-49/APA cells) [3] = molecular target: T1, APA (SK-RC-49/APA cells); assay: Phage binding specificity assay on SK-RC-49/APA cells; type: cell-based
Procedure: The cell binding assay was performed with an input of 10^9 TU as described for the cell panning. The specificity was confirmed by adding […] (SEQ ID NO:123) peptide to the binding medium in increasing concentrations. For phage binding on immunocaptured APA, wells were blocked for 1 h at room temperature with PBS/3% BSA and incubated with 10^9 TU for 1 h at room temperature in 50 μl PBS/3% BSA. After eight washes in PBS/1% BSA/0.01% Tween-20 and two washes in PBS, phage were rescued by adding 200 μl of exponentially growing K91Kan E. coli. Each experiment was repeated at least three times.

endothelial cells = assay: Endothelial cell migration (chemotaxis) assay with penetratin peptide chimeras; type: cell-based, human; settings: VEGF-A 20 ng/ml, 5 h, FIG. 16
Procedure: FIG. 16. Effect of penetratin peptide chimeras on endothelial cell migration. Cell migration assay were performed in a 48-well microchemotaxis chamber. Five random high-power fields (magnitude 40×) were counted in each well.
Cell migration assays were performed as follows: 48-well microchemotaxis chambers were used. Polyvinylpyrrolidone-free polycarbonate filters (Nucleopore, Cambridge, Mass.) with 8-μm pores were coated with 1% gelatin for 10 min at room temperature and equilibrated in M199 medium supplemented with 2% FCS. Peptides were placed in the lower compartment of a Boyden chamber in M199 supplemented with 2% FCS, 20 ng/ml VEGF-A (R&D System), and 1 U/ml heparin. Overnight-starved subconfluent cultures were quickly trypsinized, and resuspended in M199 containing 2% FCS at a final concentration of 2×10^6 cells/ml. After the filter was placed between lower and upper chambers, 50 μl of the cell suspension was seeded in the upper compartment. Cells were allowed to migrate for 5 h at 37° C. in a humidified atmosphere with 5% CO2. The filter was then removed, and cells on the upper side were scraped with a rubber policeman. […] Five random high-power fields (magnitude 40×) were counted in each well.
Cell migration was assayed in a 48-well microchemotaxis chamber. […] Five random high-power fields (magnitude 40×) were counted in each well.

[4] = system: chicken chorioallantoic membrane (CAM); assay: CAM assay for angiogenesis; type: in vivo; settings: control peptide, 1 mM, not shown
Procedure: In vivo angiogenesis was evaluated by a CAM assay (Ribatti et al., 1994). Fertilized eggs from White Leghorn chickens were maintained in constant humidity at 37° C. On the third day of incubation, a square window was opened in the eggshell and 2-3 ml of albumen was removed to detach the developing CAM from the shell. The window was sealed with a glass plate of the same size and the eggs were returned to the incubator. At day 8, 1 mm^3 sterilized gelatin sponges (Gelfoam, Upjohn Co, Kalamazoo, Milan) were adsorbed with VEGF-A (20 ng, R&D System) and either […] (SEQ ID NO:123) or control […] (SEQ ID NO:124) peptide (1 mM) in 3 μl PBS and implanted on the top of the growing CAMs under sterile conditions. CAMs were examined daily until day 12 and photographed in ovo with a Leica stereomicroscope. Capillaries emerging from the sponge were counted. The assay was repeated twice.

HUVECs [5] = assay: HUVEC chemotaxis assay (Boyden chamber, VEGF-A); type: cell-based, human; settings: 1 mM, VEGF-A 10 ng/ml, 5 h, FIG. 24
Procedure: FIG. 24. […] (SEQ ID NO:123) inhibits HUVEC migration. HUVECs were stimulated with VEGF-A (10 ng/ml). The assay was performed in a Boyden microchemotaxis chamber, and cells were allowed to migrate through an 8-μm pore filter for 5 h at 37° C. […] (SEQ ID NO:124) (control) and […] (SEQ ID NO:123) peptides were tested at 1 mM concentration. Migrated cells were stained and five high-power fields (magnitude 100×) for each microwell were counted. Error bars are the standard error of the means of triplicate microwells.
A cell migration assay was performed in a 48-well microchemotaxis chamber (NeuroProbe, Gaithersburg, Md.) according to Bussolini et al. (1995). Polyvinylpyrrolidone-free polycarbonate filters (Nucleopore, Cambridge, Mass.) with 8-μm pores were coated with 1% gelatin for 10 min at room temperature and equilibrated in M199 medium supplemented with 2% FCS. […] (SEQ ID NO:123) or control […] (SEQ ID NO:124) peptide (1 mM) was placed in the lower compartment of a Boyden chamber in M199 medium supplemented with 2% FCS and 10 ng/ml VEGF-A (R&D System). Subconfluent cultures that had been starved overnight were harvested in PBS containing 2.5 mM EDTA, washed once in PBS, and resuspended in M199 medium containing 2% FCS at a final concentration of 2×10^6 cells/ml. After the filter was placed between the lower and upper chambers, 50 μl of the cell suspension was seeded in the upper compartment, and cells were allowed to migrate for 5 h at 37° C. in a humidified atmosphere with 5% CO2. The filter was then removed, and cells on the upper side were scraped with a rubber policeman. Migrated cells were fixed in methanol and stained with Giemsa solution (Diff-Quick, Baxter Diagnostics, Rome, Italy). Five random high-power fields (magnitude 100×) were counted in each well. Each assay was run in triplicate.

HUVECs [6] = assay: HUVEC cell growth assay (crystal violet, VEGF-A); type: cell-based, human; settings: 1 mM, VEGF-A 10 ng/ml, FIG. 25
Procedure: FIG. 25. […] (SEQ ID NO:123) inhibits HUVEC proliferation. Cells were stimulated with VEGF-A (10 ng/ml), and growth was evaluated at the indicated times by a colorimetric assay based on crystal violet staining. Error bars are the standard error of the means of triplicate wells. Each experiment was repeated at least twice with similar results.
HUVECs were seeded in 48-well plates (10^4 cells/well) and allowed to attach for 24 h in complete M199 medium. The cells were then starved in M199 medium containing 2% FCS for 24 h. […] (SEQ ID NO:123) or control […] (SEQ ID NO:124) peptide (1 mM) was added to the wells in medium containing 2% FCS and 10 ng/ml VEGF-A (R&D System, Abingdom, UK). After incubation for the indicated times, cells were fixed in 2.5% glutaraldehyde, stained with 0.1% crystal violet in 20% methanol, and solubilized in 10% acetic acid. All treatments were done in triplicate. Cell growth was evaluated by measuring the O.D. at 590 nm in a microplate reader (Biorad, Hercules, Calif.). A calibration curve was established and a linear correlation between O.D. and cell counts was observed between 10^3 and 10^5 cells.

HUVECs [7] = assay: Three-dimensional Matrigel culture of HUVECs (capillary-like network); type: cell-based, human; settings: 1 mM, 24 h, not shown
Procedure: Matrigel (Collaborative Research, Bedford, Mass.) was added at 100 μl per well to 48-well tissue culture plates and allowed to solidify for 10 min at 37° C. HUVECs were starved for 24 h in M199 medium supplemented with 2% FCS before being harvested in PBS containing 2.5 mM EDTA. 10^4 cells were gently added to each of the triplicate wells and allowed to adhere to the gel coating for 30 min at 37° C. Then, medium was replaced with indicated concentrations of […] (SEQ ID NO:123) or […] (SEQ ID NO:124) peptides in complete medium. The plates were photographed after 24 h with an inverted microscope (Canon). The assay was repeated three times.

[8] = molecular target: T2, β5 integrin cytoplasmic domain (Homo sapiens, UniProt P18084); assay: Phage binding to immobilized GST-β5cyto; settings: for β5/GST Ratio: colonies from β5-GST wells divided by GST
T2 construct: the screenings involving the β5 cytoplasmic domain fusion protein
T2 sequence (P18084 743-799 limits assumed): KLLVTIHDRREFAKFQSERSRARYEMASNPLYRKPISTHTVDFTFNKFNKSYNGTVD
Procedure: FIG. 10. Binding of β5 cytoplasmic domain-selected phage to immobilized proteins. GST fusion proteins or GST alone were coated on microtiter wells at 10 μg/ml and used to bind phage expressing endostatin binding peptides. […] The data represent the mean colony counts from triplicate wells, with standard error less than 10% of the mean.
β3 and β5 cytoplasmic domain-binding peptides were isolated by screening multiple phage libraries with recombinant GST fusion proteins that contained either GST-β3cyto or GST-β5cyto coated onto microtiter wells. Immobilized GST was used as a negative control for enrichment during the panning of each cytoplasmic domain. Phage were sequenced from randomly selected clones after three rounds of panning as disclosed elsewhere (Koivunen et al., 1995; Pasqualini et al., 1995). Distinct sequences were isolated that interacted specifically with the β3 or with the β5 cytoplasmic domains (Table 9). Randomly selected clones from panning rounds II and III were sequenced. Amino acid sequences of the phagemid encoded peptides were deduced from nucleotide sequences. The ratios were calculated by dividing the number of colonies recovered from β3-GST-coated wells and those recovered from GST or BSA.
A similar strategy was used to determine the specificity of the phage isolated in the screenings involving the β5 cytoplasmic domain fusion protein.
To determine whether the binding of the selected motifs was specific for each cytoplasmic domain, binding assays were performed comparing the interaction of individual phage motifs with β1, β3, or β5 cytoplasmic domain fusion proteins. […] Both the β3- and β5-selected phage selectively interacted with the proteins on which they were originally selected, with average binding selectivities observed of β3/β1=3.9, β3/β5=3.7, β5/β1=4.8, and β5/β3=6.9 (not shown). The average selectivity for integrin cytoplasmic domains versus BSA was about one to two orders of magnitude (not shown). None of the phage tested seemed to bind strongly to the β1 cytoplasmic domain (not shown).

CLGQCASICVNDC
enrichment in tumor xenografts compared to brain tissue [1]: Neither CYNLCIRECESICGADGACWTWCADGCSRSC (SEQ ID NO:125) nor CLGQCASICVNDC (SEQ ID NO:126) phage showed any tumor-homing preference
Round 2 (%) (APA (SK-RC-49/APA cells) [2]): 5%
displacement of phage binding by CPRECESIC peptide (APA (SK-RC-49/APA cells) [3]; data not shown): not affected

SDNRYIGSW [Y-18 tested as penetratin chimera]
effect on endothelial cell migration (endothelial cells): increase cell migration

GACVRLSACGA (disulfide 3-9 (inferred)) [unrelated cyclic control peptide, reference compound]
effect on the number of growing vessels [4]: no effect
inhibition of chemotaxis of HUVECs (HUVECs [5]): no significant effect
competition with CPKVCPRECESNC phage for binding to SK-RC-49/APA cells (APA (SK-RC-49/APA cells) [3]; soluble peptide in binding medium, not shown): no competitive activity
inhibition of HUVEC proliferation (HUVECs [6]): no significant effect
HUVEC morphogenesis / capillary-like network (HUVECs [7]): did not affect HUVEC morphogenesis

GLDTYRGSP [TYR-11 tested as penetratin chimera]
effect on endothelial cell migration (endothelial cells): increase cell migration

DWFSYYEL
β5/BSA Ratio ([8]; colonies from β5-GST wells divided by BSA): 153
β5/GST Ratio [8]: 1.7

CKLWQEDGY
β5/GST Ratio [8]: 1.8
